From patent US20110312961A1, “2,5-Disubstituted Morpholine Orexin REceptor Antagonists” (priority 2008, published 2011)

Columns and labels:
rat native α7 receptors = molecular target: T1, rat native α7 receptors (Rattus norvegicus, UniProt Q05941); experiment: [3H]MLA radioligand binding, α7 NNR subtype, rat hippocampal membranes; conditions: read-out: Ki, inhibition of [3H]methyllycaconitine (MLA) binding to rat native α7 receptors
T1 construct: rat native α7 receptors in rat hippocampal membranes; from tissue; host or cells: rat (female Sprague-Dawley) hippocampus membranes
Method: Rats (female, Sprague-Dawley), weighing 150-250 g, were maintained on a 12 h light/dark cycle and were allowed free access to water and food supplied by PMI Nutrition International, Inc. Animals were anesthetized with 70% CO2, and then decapitated. Brains were removed and placed on an ice-cold platform. The hippocampus was removed and placed in 10 volumes (weight:volume) of ice-cold preparative buffer (137 mM NaCl, 10.7 mM KCl, 5.8 mM KH2PO4, 8 mM Na2HPO4, 20 mM HEPES (free acid), 5 mM iodoacetamide, 1.6 mM EDTA, pH 7.4); PMSF, dissolved in methanol to a final concentration of 100 μM, was added and the tissue suspension was homogenized by Polytron. […] Protein was determined by the method of Lowry et al., J. Biol. Chem. 193: 265 (1951), using bovine serum albumin as the standard.
The binding of [^3H]MLA was measured using a modification of the methods of Davies et al., Neuropharmacol. […] The binding of [^3H]MLA was determined using a 2 h incubation at 21° C. […] Non-specific binding was determined by inclusion of 50 μM non-radioactive MLA in selected wells.
The inhibition of [^3H]MLA binding by test compounds was determined by including seven different concentrations of the test compound in selected wells. […] Inhibition constants (Ki values), reported in nM, were calculated from the IC50 values using the method of Cheng et al., Biochem. Pharmacol. 22: 3099-3108 (1973).

CD-1 mice = experiment: Formalin test; type: in vivo, mouse
Method: One of the most clinically predictive screening models of acute pain is the formalin test in mice (LeBars et al., 2001). In this paradigm, originally described by Dubuisson and Dennis (1977), a diluted solution of formalin is injected into the plantar surface of a subject's (rat or mouse) rear paw and nociceptive behavior is measured; for instance, licking and biting of the injected paw. Two phases of the response are observed. First an early phase, starting immediately after injection and lasting 5-10 minutes, followed by a late phase that can last from 15-60 minutes after injection. Nociceptive response is attributed to direct chemical stimulation in the early phase and inflammation/persistent pain in the later phase (Dubuisson and Dennis, 1977). The response in the late phase also depends on changes in processing of information in the spinal cord due to the afferent barrage during the early phase (Coderre et al., 1990). An advantage of the test is that two different types of stimuli are employed in the same assay to study the possibility of varying analgesic effects of a drug in the two phases of the test (Tjølsen and Hole, 1997).
Subjects (adult male CD-1 mice (Charles River, Raleigh, N.C.) weighing approximately 20-25 grams) were removed from their home cage and weighed, then placed in a clear Plexiglas™ observation box for an acclimation period of 20-30 minutes. Mice were then removed from the observation chambers and (2S,3R)—N-2-((3-pyridinyl)methyl)-1-azabicyclo[2.2.2]oct-3-yl)-3,5-difluorobenzamide (as the hydrochloride salt in 0.9% saline) (1, 3 or 10 mg/kg s.c. (calculated with respect to the free base)), morphine (5 mg/kg; s.c.) or 0.9% saline vehicle was administered subcutaneously in a volume of 1 mL/kg. Mice were then returned to the chamber for the predetermined pretreatment time of 30 minutes for (2S,3R)—N-2-((3-pyridinyl)methyl)-1-azabicyclo[2.2.2]oct-3-yl)-3,5-difluorobenzamide and morphine.
After the test compound pretreatment time, the animals were injected with formalin solution (2.5% derived as a 1:4 dilution of 10% phosphate buffered formalin solution (Sigma):distilled water). The subject's assigned paw was gasped gently and formalin solution was injected into the paw intra-dermally in the middle on the dorsal side. Once injected, the subject was immediately returned to its observation chamber and a timer was started to mark the beginning of Phase I. Each subject was videotaped for the entire 40-minute session. […] The time spent licking during that 1 min interval was recorded, and the presence or absence of paw favoring was noted.
For data analyses, phase I of the test was defined as 0 to 5 minutes after formalin injection, and phase II was defined as 20 to 40 minutes after formalin injection. The time spent licking during the 1 minute intervals during those time frames was recorded and graphed as mean±S.E.M. For comparisons across treatment groups, 1-way analyses of variance (ANOVAs) were performed for each phase of the session with treatment as the […] variable. Post-hoc analyses were performed when appropriate to determine specific group differences.

T1 sequence (Q05941 23-502): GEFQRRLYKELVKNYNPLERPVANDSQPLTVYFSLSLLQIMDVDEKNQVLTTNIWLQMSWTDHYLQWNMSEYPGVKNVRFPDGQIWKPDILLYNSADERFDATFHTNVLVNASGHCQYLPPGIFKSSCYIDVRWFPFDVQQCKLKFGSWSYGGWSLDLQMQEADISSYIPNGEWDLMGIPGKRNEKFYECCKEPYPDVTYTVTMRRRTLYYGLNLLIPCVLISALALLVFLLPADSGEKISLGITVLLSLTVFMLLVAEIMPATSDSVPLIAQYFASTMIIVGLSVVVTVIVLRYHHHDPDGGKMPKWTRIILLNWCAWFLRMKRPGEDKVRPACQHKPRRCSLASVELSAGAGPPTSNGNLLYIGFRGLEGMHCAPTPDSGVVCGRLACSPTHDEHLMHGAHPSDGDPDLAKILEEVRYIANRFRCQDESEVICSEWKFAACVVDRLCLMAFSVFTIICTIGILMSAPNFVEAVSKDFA

## O=C(N[C@@H]1C2CCN(CC2)[C@H]1Cc1cccnc1)c1cc(F)cc(F)c1 [Compound A]
Rat native α7 receptors
  Ki: 100 nM
CD-1 mice; 10 mg/kg s.c., 20 to 40 minutes after formalin, P<0.05
  reduction of time spent licking the paw, phase II: significant in reducing the time spent licking the paw
CD-1 mice; 1, 3 or 10 mg/kg s.c., hydrochloride salt, 0 to 5 minutes after formalin
  reduction of time spent licking, phase I: no statistically significant dose
CD-1 mice; subsequent analysis of the videotapes, scored across the entire time period
  reduction of time spent licking the affected paw, phase I or phase II: failed to achieve statistical significance
